How the values were obtained:
endothelial cells [1] = assay: ^3H-lyso-PI binding to endothelial cells; set-up: species or system human; conditions: 1 μM, 45 min, 25° C.; 10^6 cells per ml
Experimental: To evaluate whether lyso-PI may directly bind to endothelial cells, endothelial cells (10^6 per ml) were incubated with ^3H-lyso-PI (1 μM [specific activity, ˜10,000 cpm/nmole], 45 min, 25° C.). As a control, endothelial cells were pretreated with LPG (20 μM, 15 min, 25° C.) before the incubation with ^3H-lyso-PI. Following incubation, the cell suspension was layed onto silicone oil (Silicones FC-50, General Electric, Waterford, N.Y.) and cell-bound ^3H-lyso-PI was separated from free-^3H-lyso-PI by centrifugation (10,000 g, 10 min, room temperature). The amount of ^3H-lyso-PI in the cell pellet and in the supernatant were solubilized in Ecoscint (National Diagnostics, Highland Park, N.J.) and quantitated by a β-emission counter (Beckman Instruments, Palo Alto, Calif.).

endothelial cells [2] = assay: Endothelial adhesion to monocytes (MM6) assay; conditions: for inhibition of endotoxin-mediated endothelial adhesion to monocytes by LPG fragments: fragments 1-10 μM (2 μM, 1 h in FIG. 21), endotoxin 10 ng/ml 4 h
Experimental: Endothelial cell were isolated from human umbilical veins by an established method as described. […] In all experiments, 2-4 passages of subcultured endothelial cells were used and were grown on fibronectin-precoated 96-well plates for 2-3 days prior to use.
On the day of the experiment, endothelial cells were treated with endotoxin (E. coli, J5, 10 ng/ml) for 4 h. MM6 (1×10^5 cells) were subsequently added to the endotoxin-stimulated endothelial cells. Monocyte adhesion was performed for 20 min at 37° C. Unbound MM6 cells were removed by washing (3×). Adhesion of MM6 onto endothelium was quantitated by counting the bound MM6 cells under a microscope. […] The values of triplicates were averaged, and variations between triplicates were <5%. […] For experiments to examine if LPG could inhibit endotoxin-mediated monocyte adhesion, the endothelial cells were first preincubated with LPG (2 μM) for 1-2 h at 37° C. prior to the addition of endotoxin.

[3] = tested on: human umbilical vein endothelial cells; assay: Competition for LPG binding by LPG fragments (FACS); conditions: for competition with intact LPG for binding to endothelial cells: fragment 10 μM prior to intact LPG 1 μM; for Percent Inhibition: pretreatment with fragment 10 μM 15 min before intact LPG 1 μM, 15 min, 37° C., means ± SE of 3 experiments
Experimental: To address whether the lyso-PI and core-PI fragments may mediate cell binding, an indirect approach was used. Endothelial cells (10^6/ml) obtained by mild collagenase treatment were first incubated with either lyso-PI or core-PI (10 μM, 15 min 37° C.) prior to the addition of intact LPG (1 μM, 15 min 37° C.); PGM and PG (10 μM, 15 min 37° C.) were used as controls. Cells were washed, after incubation with anti-LPG mAb as described above (Indirect Immunofluorescence) and subjected to FACS analysis by binding of the intact LPG.

In the case of “^3H-Lyso-alkyl-PI [^3H-lyso-PI, reference compound]”, the “^3H-lyso-PI bound, of the total input ^3H-lyso-PI” value (endothelial cells [1]) is reported as 32.2±3.1%.

“lyso-alkyl-phosphatidylinositol [lyso-PI]” was tested, and the “inhibition of endotoxin-mediated endothelial adhesion to monocytes by LPG fragments” value (endothelial cells [2]) was “did not inhibit”, the “competition with intact LPG for binding to endothelial cells” value [3] was roughly 30% and the “Percent Inhibition” value [3] was 29.9 ± 6.0%.

With “phosphosaccharide core-lyso-alkyl-phosphatidylinositol [core-PI]” the “inhibitory effect of co-addition of fragments” value (endothelial cells [2]; co-addition of PG (2 μM) and core-PI (2 μM)) was “No additive inhibitory effect”, the “inhibition of endotoxin-mediated endothelial adhesion to monocytes by LPG fragments” value (endothelial cells [2]) was “did not inhibit” and the “competition with intact LPG for binding to endothelial cells” value [3] was roughly 30%. The “Percent Inhibition” value [3] was 32.0 ± 5.0%.

— US6491922B1, “Methods and compounds for treating autoimmune and vascular disease” (Cornell Research Foundation, Inc., priority 1996, dated 2002)
